# Measurements from patent publication US20050004105A1, “Treatment for a attention-deficit hyperactivity disorder” (priority 2003, published 2005).
# “Also recorded” adds a separate entry of the source. Read-outs that look alike come from different tables or passages of the source.
# Legend:
# 5-HT1A receptors [1] = target: T1, 5-HT1A receptors (Homo sapiens, UniProt P08908); test: 5-HT1A receptor affinity (Schipper et al., 1991); type: binding; details: for ΔpKi for 5-HT1A and D2 receptors: based on Ki values of Schipper et al.
# T1 sequence (P08908 1-422): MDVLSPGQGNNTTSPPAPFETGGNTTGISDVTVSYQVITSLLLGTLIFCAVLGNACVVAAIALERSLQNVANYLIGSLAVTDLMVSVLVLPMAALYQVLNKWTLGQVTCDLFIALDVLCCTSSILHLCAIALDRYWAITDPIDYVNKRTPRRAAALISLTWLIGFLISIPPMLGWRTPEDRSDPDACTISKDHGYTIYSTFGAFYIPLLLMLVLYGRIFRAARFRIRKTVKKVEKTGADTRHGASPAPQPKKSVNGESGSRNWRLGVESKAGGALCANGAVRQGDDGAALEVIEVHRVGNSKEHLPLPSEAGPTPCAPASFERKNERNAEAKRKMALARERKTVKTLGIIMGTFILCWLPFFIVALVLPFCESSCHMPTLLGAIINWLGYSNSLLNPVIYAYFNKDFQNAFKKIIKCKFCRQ
# dopamine D2 receptors [2] = target: T2, dopamine D2 receptors (Homo sapiens, UniProt P14416); test: Dopamine D2 receptor affinity (Schipper et al., 1991); type: binding; details: converted from Ki of Schipper et al., read-out: pKi for D2 receptors (converted)
# T2 sequence (P14416 whole entry): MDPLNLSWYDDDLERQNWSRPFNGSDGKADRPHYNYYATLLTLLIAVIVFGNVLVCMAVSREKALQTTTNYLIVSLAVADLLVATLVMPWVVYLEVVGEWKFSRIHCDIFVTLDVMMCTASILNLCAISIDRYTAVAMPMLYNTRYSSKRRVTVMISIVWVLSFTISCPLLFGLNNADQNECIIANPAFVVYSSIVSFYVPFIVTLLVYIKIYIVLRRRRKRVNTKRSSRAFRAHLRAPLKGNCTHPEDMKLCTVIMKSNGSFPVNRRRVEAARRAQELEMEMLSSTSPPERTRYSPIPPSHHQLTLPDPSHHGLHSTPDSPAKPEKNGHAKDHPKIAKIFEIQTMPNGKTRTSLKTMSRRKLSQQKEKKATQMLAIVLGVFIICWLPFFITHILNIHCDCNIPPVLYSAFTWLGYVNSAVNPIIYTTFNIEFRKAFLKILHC
# 5-HT1A receptors [3] = target: T1, 5-HT1A receptors; test: 5-HT1A receptor affinity (Koek et al., 1998); type: binding; details: from pKi values of Koek et al.
# mice (C57BL/6J; C3H) = test: Peak procedure (peak interval procedure, PIP); type: in vivo; details: for effect on performance (relative response rate curve) in PIP 30 s task: C57BL/6J mice, vs saline
# Experimental: The peak procedure is a behavioral model designed to assess an animal's ability to learn an appropriate time period in which to perform a task and a time period in which the animal will be rewarded if the task is performed. The model provides information concerning excitatory and inhibitory components of behavior, as subjects must respond to perform a task when appropriate and stop responding in an “empty trial” when time for reward has elapsed and the reward has not been delivered. The task is sensitive to conditions where there is a failure in inhibitory mechanisms, such as seems to be the case for ADHD (Pliszka et al., Biol. Psychiatry, 48:238-46, 2000).
# In the peak procedure, mice are trained to work for food that is delivered at the same time in each trial, but withdrawn in some unreinforced trials. Typically, the response rate increases up to a maximum around the reinforcement time, and then decreases to a low toward the end of the trial. The shape of the response rate indicates whether the animal is sensitive to the time of reinforcement. To be able to perform well in this model, the animals need to be able to learn several tasks. First, the animal must make an association between a response (lever pressing, nose poking or key pecking) and the delivery of reward. Second, the animal must be able to perceive and remember time. Third, the animal must act on its remembered time by starting and then stopping or inhibiting the response. Fourth, the animal must be able to compare the elapsed time in the trials with its remembered time to reinforcement. In each trial the time clock is reset, and the animal must reset its internal “counter,” i.e., at the beginning of each trial animals should start “timing” the trial time from zero. The ability to perform this task depends on the animal's working memory. Starting the internal clock at the beginning of the trial requires that the animal pays attention to the trial start time, which could be in the form of a visual signal, or as reported herein, the introduction of a lever into the experimental chamber. […] Accuracy is measured by looking at the shape of the response function; therefore, if the response function is sharper and centered on the reinforcement time it supports a conclusion that attentional processes have been heightened.
# All mice were food deprived to a target weight of 85-90% of their free-feeding weight before training began. Mice were fed approximately 10% of their body weight until they reached their target weight. On average, 1 week of food deprivation was sufficient to reach the target weight. During this time, all subjects were fed Bioserve 500 mg precision dustless pellets as their daily ration. They were exposed to Carnation™ evaporated milk in the home cage to avoid a possible neophobic reaction to the reinforcement. Subjects were given 1-week “vacations” every 4 to 6 weeks at which time they were allowed free access to food and a new free-feeding body weight baseline was recorded. Water was continuously available in the cage.
# Once deprived, animals were trained to lever-press in an operant chamber using ultrasensitive levers. Sixteen mouse operant chambers (Med Associates, Georgia, Vt.) were configured identically with two retractable ultra-sensitive levers, stimulus lights, and a dipper for delivery of condensed milk. A house light was placed on the opposite wall from the levers. Each chamber was placed in isolation cubicle. A fan provided white masking noise and adequate air.
# Training and testing consisted of 1-h daily sessions. Subjects started on a concurrent fixed ratio 1-fixed time 1 min (FR 1-FT 1) schedule of reinforcement in which the house light served as the discriminative stimulus. Food was delivered every 1 min but the delivery was immediate if the animal made a response. […] After no more than 1 week on this schedule, mice began training with a fixed-interval (FI) 10 s schedule in which all trials were separated by a 20 s, intertrial interval. […]
# [4] = tested on: coloboma mutant (Cm) mice; test: Open-field locomotor activity, coloboma mutant mice; type: in vivo
# From the text: (§1) Heterozygote coloboma mice were originally purchased from The Jackson Laboratory (Bar Harbor, Me.) and were bred and maintained in our colony. In the current study, mutant mice and wild-type littermates, all aged 8 to 10 weeks, were used. Animals were divided into 4 groups: mutant/drug-treatment, mutant/vehicle-control, wild-type/drug-treatment, wild-type/vehicle-control (n=4-13 per group). Age and gender were balanced among groups. All animals were housed as littermates (2-4 mice per cage) and were maintained on ad libitum food and water with a 12 hr light/dark cycle.
# (§2) The Open-field (OF) test was performed under normal lighting conditions (400 lux). Mice (Cm/+, WT) were brought into the experimental room and allowed at least 1 hr of acclimation. […] Each mouse was then placed into an OF arena (27×27×20 cm) with an infrared beam array system (Med Associates, St. Albans, Vt.) that automatically monitored the animal's activity. Four animals of matching genotype and treatment were tested at one time. The test session lasted 40 min and animals were returned to the home cage at the end of the session. Test measures included locomotion (distance traveled in cm) and number of center entries (zone crossings).
# wild-type mice = test: Open-field locomotor activity, wild-type mice; type: in vivo
# From the text: as §1, §2
# 5-HT1A receptors [5] = target: T1, 5-HT1A receptors; details: Schipper et al., 1991; cited from earlier work
# α1 adrenergic receptors = details: Schipper et al., 1991; cited from earlier work
# 5-HT1D receptors = details: Schipper et al., 1991; cited from earlier work
# dopamine D2 receptors [6] = target: T2, dopamine D2 receptors; details: Schipper et al., 1991; cited from earlier work
# 5-HT1B receptors = details: Schipper et al., 1991; Boddeke et al., 1992; cited from earlier work
# 5-HT1A receptors [7] = target: T1, 5-HT1A receptors; details: Koek et al., 1998; cited from earlier work
# D2 receptors = D2 receptors (Homo sapiens, UniProt P14416); details: Koek et al., 1998; cited from earlier work
# Sequence of D2 receptors (P14416 whole entry): as above
# 5-HT1A receptors [8] = target: T1, 5-HT1A receptors; details: proportion of maximal inhibition of forskolin-stimulated cAMP relative to 5-HT; Koek et al., 1998; cited from earlier work
# rats = rats trained to discriminate flesinoxan (0.5 mg/kg i.p.) from saline; cited from earlier work
# [9] = target: other neurotransmitter receptors; details: Schipper et al., 1991; cited from earlier work
# Cm mutant mice = Cm mutant mice (methylphenidate: both control and Cm mutants); Hess et al., 1996; cited from earlier work
# [10] = tested on: other 5-HT receptor subtypes or other neurotransmitter receptors; details: reported; cited from earlier work
# [11] = C3H mice, 0.03 mg/kg, vs vehicle
# [12] = C3H mice, 0.1 mg/kg, vs vehicle
smiles,measurement,setting,value
"Cl.O=C(NCCN1CCN(c2cccc3c2OCC(CO)O3)CC1)c1ccc(F)cc1 (single isomer, unassigned; (+)) [flesinoxan, (+)(4-fluoro-N-[2-[4-[2-(hydroxymethyl)-1,4-benzodioxane-5-yl] 1-piperazinyl]ethyl]benzamide) HCl]",ΔpKi for 5-HT1A and D2 receptors,5-HT1A receptors [1],about 1.92
same,Ki,5-HT1A receptors [1]; converted from Ki of Schipper et al.,1.7 nM
same,Ki,dopamine D2 receptors [2],141 nM
same,ΔpKi for 5-HT1A and D2 receptors,5-HT1A receptors [3],1.86
same,effect on response curve in PIP 30 s,mice (C57BL/6J; C3H); [11],the peaks of the response curve is higher and the curves are sharper than vehicle
same,effect on response curve in PIP 45 s,mice (C57BL/6J; C3H); [11],evident but less robust
same,effect on performance curves in PIP 30 s and PIP 45 s,mice (C57BL/6J; C3H); [12],more comparable to saline curve
same,reduction in locomotor activity compared to vehicle-treated Cm mutants,"[4]; Cm mutant mice, 0.3 mg/kg i.p.",more than 75%
same,total ambulatory distance,"[4]; Cm mutant mice, 0.3 mg/kg i.p. 30 min before 40 min open-field session, vehicle 6112±1621",1462±411 centimeters
same,frequency of zone crossings,"[4]; Cm mutant mice, 0.3 mg/kg i.p., overall effect not statistically significant (p=0.0683)",decreased the frequency of zone crossings in Cm mutants to within the range of saline-treated wild-type mice
same,locomotion (distance traveled or zones crossed),wild-type mice; 0.3 mg/kg i.p.,only marginally affected locomotion
same,Ki,5-HT1A receptors [5],1.7 nM
same,Ki,α1 adrenergic receptors,380 nM
same,Ki,5-HT1D receptors,160 nM
same,Ki,dopamine D2 receptors [6],140 nM
same,Ki,5-HT1B receptors,810 nM
same,pKi for 5-HT1A receptors,5-HT1A receptors [7],8.91
same,pKi for D2 receptors,D2 receptors,7.05
same,intrinsic activity at the 5-HT1A receptor,5-HT1A receptors [8],0.93
same,"generalization to stimuli of α1 adrenoceptor antagonist, α2 adrenoceptor agonist, dopamine receptor agonist or antagonists",rats,did not generalize
"CCCN(CCC)C1Cc2c[nH]c3ccc(C(N)=O)c(c23)C1 (single isomer, unassigned; (-)) [LY228729, (−)-4(dipropylamino)-1,3,4,5-tetrahydrobenz-[c,d,]indole-6-carboxamide]",intrinsic activity at the 5-HT1A receptor,5-HT1A receptors [8],0.88
"CCCN(CCC)C1CCc2cccc(O)c2C1 (stereo not drawn) [8-OH-DPAT, 8-hydroxy-2(di-n-propylamino)tetralin]",ΔpKi for 5-HT1A and D2 receptors,5-HT1A receptors [1],2.94
same,effect on performance curves in PIP 30 s and PIP 45 s,"mice (C57BL/6J; C3H); C3H mice, 0.01 mg/kg, vs vehicle, 0.01 mg/kg",not significantly different from the saline curve; also recorded: slightly disruptive
same,effect on performance curves in PIP 30 s and PIP 45 s,mice (C57BL/6J; C3H); [12],not significantly different from the saline curve
same,attenuation of total ambulatory distance compared to vehicle,"[4]; Cm mice, 0.1 mg/kg",~50%
same,total frequency of zone crossings,"[4]; Cm mice, 0.1 mg/kg, p=0.030",significantly decreased
same,total ambulatory distance,"[4]; Cm mice, 0.1 mg/kg, vehicle 14702±2611, not statistically significant",7813±2606 centimeters
same,attenuation of Cm hyperactivity,"[4]; Cm mice, lower doses 0.001 or 0.01 mg/kg, data not shown",no significant attenuation
same,total ambulatory distance,"wild-type mice; 0.1 mg/kg, vehicle 7720±2726, non-significant",4517±1599 centimeters
same,Ki,α1 adrenergic receptors,380 nM
same,Ki,5-HT1D receptors,930 nM
same,Ki,[9],> 1000 nM
"Cn1c(=O)cnn(CCCCN2CCN(c3ncccn3)CC2)c1=O [F11440, 4-methyl-2-(4-[4-(pyrimidin-2-yl)-piperazino]-butyl)-2H,4H-1,2,4-triazin-3,5-dione]",ΔpKi for 5-HT1A and D2 receptors,5-HT1A receptors [3],2.58
same,pKi for 5-HT1A receptors,5-HT1A receptors [7],8.33
same,pKi for D2 receptors,D2 receptors,5.75
same,intrinsic activity at the 5-HT1A receptor,5-HT1A receptors [8],1.0
"COc1ccc2cccc(N3CCN(CCNC(=O)c4ccc(F)cc4)CC3)c2c1 [S14506, 1(2-[4-fluorobenzoylamino]ethyl)-4-(7-methoxynaphtyl)piperazine]",intrinsic activity at the 5-HT1A receptor,5-HT1A receptors [8],0.95
CC(N)Cc1ccccc1 (stereo not drawn) [amphetamine],effect on performance (relative response rate curve) in PIP 30 s task,mice (C57BL/6J; C3H); 1 mg/kg,positive effects
same,effect on performance (relative response rate curve) in PIP 30 s task,mice (C57BL/6J; C3H); 2 mg/kg,positive effects
same,effect on performance (relative response rate curve) in PIP 30 s task,mice (C57BL/6J; C3H); 4 mg/kg,disrupted performance
same,total distance traveled,"[4]; Cm mutant mice, 4 mg/kg i.p. 30 min before 40 min open-field session, saline 18386±6387",5966±1938 cm
same,total distance traveled,"wild-type mice; 4 mg/kg i.p. 30 min before 40 min open-field session, saline 3116±338",11657±2370 centimeters
same,effect on hyperactivity / locomotor activity,Cm mutant mice,normalizes the hyperactivity
O=C1CC2(CCCC2)CC(=O)N1CCCCN1CCN(c2ncccn2)CC1 [buspirone],ΔpKi for 5-HT1A and D2 receptors,5-HT1A receptors [1],0.44
CC1(C)CC(=O)N(CCCCN2CCN(c3ncccn3)CC2)C(=O)C1 [gepirone],intrinsic activity at the 5-HT1A receptor,5-HT1A receptors [8],0.77
"Clc1cnn(CCCCN2CCN(c3ncccn3)CC2)c1 [lesopitron, 2-[4-[4-(4-chloro-1H-pyrazol-1-yl)-butyl]-1-piperazinyl]pyrimidine]",intrinsic activity at the 5-HT1A receptor,5-HT1A receptors [8],0.70
same,affinity for other 5-HT receptor subtypes or other neurotransmitter receptors,[10],virtually no affinity
COC(=O)C(c1ccccc1)C1CCCCN1 (stereo not drawn) [methylphenidate],effect on hyperactivity / locomotor activity,Cm mutant mice,increases locomotor activity in a dose-dependent manner
